Measurements reported in patent US5773412A, “Use of peptides for altering αV β3 -mediated binding” (priority 1995, dated 1998).
“Also recorded” adds a separate entry of the source. Where a SMILES comes first, the peptide text is derived from it. Bridges are numbered along the chain shown (N, C = ends). [ ]: non-standard residue; d: D form. Tic = O=C(O)[C@@H]1Cc2ccccc2CN1; Pen = CC(C)(S)[C@H](N)C(=O)O; Mpa = O=C(O)CCS

How the values were obtained:
αv β3 receptor = target: T1, αv β3 receptor (Homo sapiens, UniProt P05106+P06756); assay: αvβ3 competitive ELISA; type: binding; conditions: IC50 in αvβ3 ELISA / JY cells versus αvβ5 and α5β1 ELISAs; in words
T1 construct: The αv β3 receptor was purified from octylglucopyranoside-extracted human placenta; from tissue; host or cells: human placenta
Method: Peptide binding to purified human αv β5 and αv β3, which are VnR's, and to α5 β1 which is a FnR, was determined using competitive ELISA assays as described below.
Peptide binding to purified αv β3 receptor was determined by using a competitive ELISA, in which αv β3 receptor was immobilized and the binding of solubilized VN, in the presence of various concentrations of peptide analogue, was detected using a monoclonal mouse IgG anti-VN antibody and a labelled anti-mouse IgG conjugate.
96 well microtiter plates were coated overnight at RT with 100 μl/well of αv β3 receptor (0.5 μg/ml in 1X TBS, 4 mM octylglucoside, 1 mM CaCl2). The wells were blocked with 200 μl/well of 1% BSA in 1X TBS, 1 mM CaCl2 for at least 30 min. The plates were washed 2× with 1X TBS, 1 mM CaCl2. 50 μl peptide in 1X TBS, 1 mM CaCl2, 0.05% TWEEN 20 (polyoxyethylenesorbitan monolaurate) was added in 10-fold serial dilutions. 50 μl of Vn in the same buffer then was added to each well.
The plates were incubated for 3 hr at RT, then washed 3× with 1X TBS, 0.05% TWEEN 20 (polyoxyethylenesorbitan monolaurate). 100 μl of 8E6 (Telios) diluted to 1:6000 in 1X TBS, 0.05% TWEEN 20 (polyoxyethylenesorbitan monolaurate) was added to the wells and the plates were incubated for 1 hr at RT. Plates were washed 3× with 1X TBS, 0.05% TWEEN 20 (polyoxyethylenesorbitan monolaurate). Affinity purified goat anti-mouse IgG conjugated to horseradish peroxidase (100μl/well; BioRad; Hercules Calif.) was added to each well and incubated for 1 hr at RT. Plates were washed 3× with 1X TBS, 0.05% TWEEN 20 (polyoxyethylenesorbitan monolaurate). 100 μl/well of substrate mixture (10 mg O-phenylenediamine in 25 ml 0.1M citrate-phosphate buffer, pH 5.0, 6 μl 30% H2 O2) was added to the plates and allowed to develop. The development process was stopped by adding 50 μl to 4N H2 SO4 to each well. The plates were read at 490 nm and the data analyzed by four parameter fit.

[1] = tested on: osteoclasts; αv β3 integrin receptor; assay: Series of assays of Example II (summary of potency and selectivity, FIG. 2); conditions: in words
αv β3 integrin receptor = conditions: Choi et al. 1994; cited from earlier work
[2] = Parathyroid hormone-induced hypercalcemia in mice; type: in vivo; conditions: parathyroidectomized Swiss-Webster mice, 4 hr peptide infusion, 0.2 mg PTH/kg i.v.; in words
From the text: Parathyroid hormone (PTH) activates osteoclasts, which are involved in bone resorption. Associated with the increased osteoclast activity is an increase in serum calcium. The PTH-induced hypercalcemia assay measures the level of serum calcium, which is an indication of bone resorption in a subject (Fischer et al., Endocrinology 132:1411-1413 (1993), which is incorporated herein by reference).
Swiss-Webster mice, which had been parathyroidectomized two weeks prior to beginning the assay, were obtained from Taconic Lab Animals and Services (Germantown N.Y.). Femoral vein catheters (PE-50 fused with PE10 polyethylene tubing; Becton Dickinson; Parsippany, N.J.) were installed in the mice, flushed and locked with heparinized saline (1:10), sutured to adjacent muscle and internalized within the inguinal space of the incision before closing the incision with wound clips. […]
The experiment was initiated by feeding the mice a calcium-deficient diet overnight, then injecting the mice the following morning with a bolus of 0.2 mg PTH/kg (hPTH 1-34; Bachem; Torrance Calif.), intravenously. […] Various doses of a peptide or vehicle were infused into an animal for 4 hr, then ionized serum calcium again was measured. […] Serum calcium measurements were expressed as the difference between the value 30 min before the PTH pulse and 4 hr after peptide infusion was started. […]

[3] = Half-life of peptide in serum; type: in vivo; conditions: in words
From the text: Increased stability of a disulfide bonded peptide of the invention also can be conferred by incorporating a hydrophobic amino acid residue such as phenylalanine at position X1 or X8 or both X1 and X8 in an RGDNTic (SEQ ID NO: 31) or RGDDV (SEQ ID NO: 1) pharmacophore as disclosed herein. The presence of such a residue can stabilize the disulfide bond against enzymatic degradation (see Bauer et al., Life Sciences 31:1133-1140 (1982)). […] In addition, the half-life of a peptide in a subject can be determined, for example, by high performance liquid chromatography (HPLC) of serum samples collected from the subject at various times following administration of the peptide. One skilled in the art would know how to select appropriate elution buffers for HPLC based on the physico-chemical properties of a particular peptide.

[4] = in vivo; Fisher et al.; cited from earlier work
osteoclasts = conditions: in vitro; Sato et al., EP 437,367; cited from earlier work

Molecule: CC(C)[C@@H]1NC(=O)[C@H](CC(=O)O)NC(=O)[C@H](CC(=O)O)NC(=O)CNC(=O)[C@H](CCCNC(=N)N)NC(=O)[C@H](C)NC(=O)[C@H](C)NC(=O)[C@@H](NC(=O)CN)C(C)(C)SSC[C@@H](C(=O)N[C@@H](C)C(N)=O)NC1=O [compound 814] (H-G[Pen]AARGDDVCA-NH2; disulfide 2-10)
- receptor selectivity for αv β3 compared to αv β5 and α5 β1 (αv β3 receptor): receptor selective for αv β3; also recorded: particularly receptor selective

Molecule: CC(=O)N[C@@H]1C(=O)N[C@@H](Cc2ccccc2)C(=O)N[C@@H](C)C(=O)N[C@@H](CCCNC(=N)N)C(=O)NCC(=O)N[C@@H](CC(=O)O)C(=O)N[C@@H](CC(N)=O)C(=O)N2CCC[C@H]2C(=O)N[C@H](C(N)=O)CSSC1(C)C [peptide 214] (Ac-[Pen]FARGDNPC-NH2; disulfide 1-9)
- potency (active at a relatively low concentration) [1]: particularly potent

Molecule: CC(=O)N[C@H]1CSSC(C)(C)[C@@H](C(N)=O)NC(=O)[C@@H]2CCCN2C(=O)[C@H](CC(N)=O)NC(=O)[C@H](CC(=O)O)NC(=O)CNC(=O)[C@H](CCCNC(=N)N)NC1=O [compound 228] (Ac-CRGDNP[Pen]-NH2; disulfide 1-7)
- receptor selectivity for αv β3 compared to αv β5 and α5 β1 (αv β3 receptor): particularly receptor selective

Molecule: G(Pen)GRGDSPCA
- inhibition of neointimal hyperplasia (αv β3 integrin receptor): can inhibit neointimal hyperplasia

Molecule: CC[C@H](C)[C@@H]1NC(=O)[C@@H](NC(=O)CN)C(C)(C)SSC[C@@H](C(=O)N[C@@H](C)C(=O)O)NC(=O)[C@H](CC(C)C)NC(=O)[C@H](CC(=O)O)NC(=O)[C@H](CC(=O)O)NC(=O)CNC(=O)[C@H](CCCNC(=N)N)NC(=O)[C@H](C)NC1=O [compound 448] (H-G[Pen]IARGDDLCA-OH; disulfide 2-10)
- receptor selectivity for αv β3 compared to αv β5 and α5 β1 (αv β3 receptor): particularly receptor selective

Molecule: CC(=O)N[C@H]1CSSC[C@@H](C(N)=O)NC(=O)[C@@H]2Cc3ccccc3CN2C(=O)[C@H](CO)NC(=O)[C@H](CC(=O)O)NC(=O)CNC(=O)[C@H](CCCNC(=N)N)NC1=O [compound 812, Ac-CRGDS(Tic)C--NH2] (Ac-CRGDS[Tic]C-NH2; disulfide 1-7)
- potency (active at a relatively low concentration) [1]: particularly potent
- activity (FIG. 2) ([1]; minimally essential elements): demonstrate activity

Molecule: CC(C)[C@@H]1NC(=O)[C@H](CC(=O)O)NC(=O)[C@H](CC(=O)O)NC(=O)CNC(=O)[C@H](CCCNC(=N)N)NC(=O)CCSSC[C@@H](C(N)=O)NC1=O [compound 191] ([Mpa]RGDDVC-NH2; disulfide 1-7)
- PTH-induced rise in serum ionized calcium [2]: decreased the PTH-induced rise in serum ionized calcium in a dose responsive manner

Molecule: CC(=O)N[C@@H](Cc1ccccc1)C(=O)N[C@H]1CSSC[C@@H](C(N)=O)NC(=O)[C@H](Cc2ccccc2)NC(=O)[C@H]([C@@H](C)O)NC(=O)[C@H](CC(=O)O)NC(=O)CNC(=O)[C@H](CCCNC(=N)N)NC1=O [peptide 220] (Ac-FCRGDTFC-NH2; disulfide 2-8)
- half-life in serum [3]: relatively long half-life in serum

Molecule: Echistatin
- inhibition of bone resorption [4]: inhibits bone resorption
- inhibition of bone resorption (osteoclasts): inhibits bone resorption in vitro
